This note sets out measurements from patent publication US5591711A, “L-lysyl-glycyl-L-histidine and therapeutic agent for wound healing containing the same” (Hoechst Japan Limited, priority 1994, dated 1997).

For this experiment, the system named is Balb/3T3 cells. Put plainly: Fibroblast proliferation promoting activity (3H-thymidine incorporation). The experiment is classed as cell-based. Conditions: Balb/3T3 fibroblasts; for Incorporated 3H-thymidine: 15 h incubation then 6 h 3H-thymidine, mean ± SD, 4 cases per group. As for the experimental part: Fibroblast cell strains, Balb/3T3 cells (purchased from ATCC) were inoculated into a 96-well culture plate at-5×10^3 cells/well, 100 μl of 10% calf serum-containing Dulbecco Modified Eagle Medium (hereinafter referred to as DME) was added and incubated at. 37 uC for 24 hours in an incubator. Then, the culture medium was removed and the cells were washed. One hundred μl of lowered serum medium (0.2% calf serum-containing DME) Was added to the wells and incubation was continued for another 3 days. L-lysyl-glycyl-L-histidine obtained in Example 1 was added thereto at 10 μl/well and incubation was performed for 15 hours. The culture medium contains a trace amount of Cu2+, and a part of L-lysyl-glycyl-L-histidine may form copper complexes. The 3H-thymidine was added to be 74 KBq/ml and incubation was performed for 6 hours. After completion of the incubation, the medium was removed, the cells were collected and the amount of 3H-thymidine incorporated in the cells was determined.
(In general: Incorporation of labelled thymidine or its analogues reports DNA synthesis.)

Peptide text beside a SMILES is read from it.

`NCCCC[C@H](N)C(=O)NCC(=O)N[C@@H](Cc1c[nH]cn1)C(=O)O` [L-lysyl-glycyl-L-histidine] (H-Lys-Gly-His-OH): the “cell proliferation promoting activity” value (10^-6 to 10^-3 M, conclusion from Table 1) is recorded as “dose-dependent cell proliferation promoting activity”. For the same molecule, the “Incorporated 3H-thymidine” value reads like this: (Dose 10^-3 M) 7719.5 ± 1246.8 cpm; (Dose 10^-4 M) 4889.8 ± 495.1 cpm; (Dose 10^-5 M) 1371.8 ± 249.1 cpm; (Dose 10^-6 M) 1406.5 ± 470.5 cpm.
